According to patent US20130253202A1, “METHOD OF TREATING HEMATOLOGICAL CANCERS” (Niiki Pharma Inc., priority 2010, published 2013):

Legend:
MV4-11 cells [1] = settings: Colado et al. 2008, Scatena et al. 2010; cited from earlier work
WSU-DLCL2 cells [2] = settings: Aref et al. 1999, Levi et al. 2010; cited from earlier work
Granta 519 cells = experiment: Anti-proliferation assay (Cell Titer-Glo) in Granta 519 mantle cell lymphoma cells; format: cell-based, human; settings: 96 total hours of culture, read-out: IC50 in Granta 519 (inhibition of cell growth)
Experimental: (§1) To determine the antiproliferative activity of sodium trans-[tetrachlorobis(1H-indazole)ruthenate(III)] in human lymphoma tumor cell lines, anti-proliferation assays were conducted in the DoHH2 (follicular lymphoma), Granta 519 (mantle cell lymphoma), and WSU-DLCL2 (diffuse large B cell lymphoma) cell lines. The DoHH2 Human EBV-negative B Cell Lymphoma cells were seeded with 5,000 cells/well and grown in RPMI1640 medium containing 20% FBS, and 2mM L-Glutamine. The Granta 519 Human Mantle Cell Lymphoma cells were seeded with 10,000 cells/well and grown in DMEM medium containing 10% FBS, and 2 mM L-Glutamine. The WSU-DLCL2 Human B Cell Lymphoma cells were seeded with 5,000 cells/well and grown in RPMI1640 medium containing 10% FBS, and 2mM L-Glutamine. Specifically, the human tumor cells were placed in a 96-well microculture plate at the appropriate density for 96 hours of total growth time. After 24 hours of incubation in a humidified incubator at 37° C. with 5% CO2 and 95% air, serially diluted test agents in growth medium were added to each well. After 96 total hours of culture in a CO2 incubator, the plates were processed with Cell Titer-Glo (Promega #G7571) according to manufacturer's instructions. Luminescence was detected using a Tecan GENios microplate reader. Percent inhibition of cell growth was calculated relative to untreated control wells. […]

WSU-DLCL2 cells [3] = experiment: Anti-proliferation assay (Cell Titer-Glo) in WSU-DLCL2 diffuse large B cell lymphoma cells; format: cell-based, human; settings: 96 total hours of culture, read-out: IC50 in WSU-DLCL2 (inhibition of cell growth)
Experimental: as §1

MV4-11 cells [4] = experiment: Anti-proliferation assay (Cell Titer-Glo) in MV4-11 human leukemia cells; format: cell-based
Experimental: The human leukemia cell line MV4-11 cells [biphenotypic B myelomonocytic leukemia, lymphoblast morphology] were placed in a 96-well microculture plate (Costar white, flat bottom #3917) in a total volume of 90 μL/well. After 24 hours of incubation in a humidified incubator at 37° C. with 5% CO2 and 95% air, 10 μL of 10X, serially diluted sodium trans-[tetrachlorobis(1H-indazole)ruthenate(III)] in growth medium was added to each well. After 96 total hours of culture in a CO2 incubator, the plated cells and Cell Titer-Glo (Promega #G7571) reagents were brought to room temperature to equilibrate for 30 minutes. 100 μL of Cell Titer-Glo® reagent was added to each well. The plate was shaken for 2 minutes and then left to equilibrate for 10 minutes before reading luminescence on the Tecan GENios microplate reader. Percent inhibition of cell growth was calculated relative to untreated control wells. All tests were performed in duplicate at each concentration level. The IC50 value for the test agent was estimated using Prism 3.03 by curve-fitting the data using the following four parameter-logistic equation: […]

DoHH2 cells = experiment: Anti-proliferation assay (Cell Titer-Glo) in DoHH2 follicular lymphoma cells; format: cell-based, human; settings: 96 total hours of culture, read-out: IC50 in DoHH2 (inhibition of cell growth)
Experimental: as §1

**Q.** Which “resistance of MV4-11 cells to the drug” value (MV4-11 cells [1]) does the source give for `COc1cccc2c1C(=O)c1c(O)c3c(c(O)c1C2=O)C[C@@](O)(C(=O)CO)C[C@@H]3O[C@H]1C[C@H](N)[C@H](O)[C@H](C)O1` [doxorubicin] here?
**A.** resistant

**Q.** What about the “resistance of WSU-DLCL2 cells to the drug” value (WSU-DLCL2 cells [2]) of the same compound?
**A.** resistant

**Q.** For `[Cl][Ru-]([Cl])([Cl])[Cl].[Na+].c1ccc2[nH]ncc2c1.c1ccc2[nH]ncc2c1` [sodium trans-[tetrachlorobis(1H-indazole)ruthenate(III)]], which IC50 (Granta 519 cells) is on record?
**A.** 63.6 µM

**Q.** And the IC50 (WSU-DLCL2 cells [3])?
**A.** 25 µM

**Q.** And the IC50 (MV4-11 cells [4]; 96 total hours of culture, compound added after 24 hours, Cell Titer-Glo, read-out: IC50 on MV4-11 (inhibition of cell growth))?
**A.** 8.53 µM

**Q.** And the “inhibition of proliferation of MV4-11 cells (FIG. 1), dose-dependent maximum” value (MV4-11 cells [4]; exposure time 24 hours, % of control)?
**A.** up to 100%

**Q.** What about the IC50 (DoHH2 cells) of the same compound?
**A.** 7.18 µM

**Q.** Which “resistance of WSU-DLCL2 cells to the drug” value (WSU-DLCL2 cells [2]) does the source give for `N[C@@H](Cc1ccc(N(CCCl)CCCl)cc1)C(=O)O` [melphalan] here?
**A.** resistant

**Q.** For `Nc1ccn([C@@H]2O[C@H](CO)[C@@H](O)[C@@H]2O)c(=O)n1` [Ara-C, cytarabine], which “resistance of MV4-11 cells to the drug” value (MV4-11 cells [1]) is on record?
**A.** resistant
